Test results published in US11802120B2, “Fused cyclic urea derivatives as CRHR2 antagonist” (RaQualia Pharma Inc., priority 2018, dated 2023).

Target: T1, human CRHR2-alpha (Homo sapiens, UniProt Q13324)
T1 sequence (Q13324 1-411): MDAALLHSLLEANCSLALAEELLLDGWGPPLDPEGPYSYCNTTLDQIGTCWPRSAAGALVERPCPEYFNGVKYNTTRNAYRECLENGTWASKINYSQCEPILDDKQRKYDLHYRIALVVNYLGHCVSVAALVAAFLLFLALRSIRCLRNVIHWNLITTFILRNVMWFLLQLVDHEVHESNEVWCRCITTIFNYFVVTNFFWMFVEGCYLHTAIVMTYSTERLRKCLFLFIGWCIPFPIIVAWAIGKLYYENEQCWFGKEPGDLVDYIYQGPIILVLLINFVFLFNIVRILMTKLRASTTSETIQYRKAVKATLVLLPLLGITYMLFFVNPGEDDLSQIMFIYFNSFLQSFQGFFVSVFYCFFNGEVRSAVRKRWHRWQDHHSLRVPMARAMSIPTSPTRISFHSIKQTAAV
Experiment: cAMP functional assay for human CRHR2 (LANCE Ultra cAMP, TR-FRET)
Assay type: cell-based
Details: CHO-K1 cells expressing human CRHR2-alpha, agonist human urocortin2 at EC80, cAMP; read-out: IC50 against CRHR2
Summary of the method: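 Antagonism measured in CHO-K1 cells stably expressing the receptor, serum-starved 7 h then cryopreserved. Thawed cells in HBSS buffer with 0.1% BSA, 0.5 mM IBMX, 5 mM Hepes pH 7.4 were preincubated with compound 30 min at 25° C, then stimulated 30 min with EC80 agonist: urocortin2 for CRHR2, CRF for CRHR1.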

IC50 [nM] | Structure (SMILES)
< 300 | Cc1ncc(Cl)cc1C(=O)N[C@H]1CC[C@H](Cn2c(=O)n(-c3ccnc(N4CCOCC4)c3)c3ccccc32)CC1 [Example 519, 5-chloro-2-methyl-N-((1r,4r)-4-((3-(2-morpholinopyridin-4-yl)-2-oxo-2,3-dihydro-1H-benzo[d]imidazol-1-yl)methyl)cyclohexyl)nicotinamide]
< 300 | Cc1ncc(Cl)cc1C(=O)N[C@H]1CC[C@H](Cn2c(=O)n(-c3ccc4c(c3)oc(=O)n4CC3CC3)c3ccccc32)CC1 [Example 195, 5-chloro-N-((1r,4r)-4-((3-(3-(cyclopropylmethyl)-2-oxo-2,3-dihydrobenzo[d]oxazol-6-yl)-2-oxo-2,3-dihydro-1H-benzo[d]imidazol-1-yl)methyl)cyclohexyl)-2-methylnicotinamide]
< 300 | O=C(N[C@H]1CC[C@H](Cn2c(=O)n(-c3cccc(N4CCCC4=O)n3)c3ccccc32)CC1)c1cc(Cl)cnc1C(F)F [Example 776, 5-chloro-2-(difluoromethyl)-N-((1r,4r)-4-((2-oxo-3-(6-(2-oxo-pyrrolidin-1-yl)pyridin-2-yl)-2,3-dihydro-1H-benzo[d]imidazol-1-yl)methyl)cyclo-hexyl)nicotinamide]
< 300 | CCn1nc2ncc(-n3c(=O)n(C[C@H]4CC[C@H](NC(=O)c5cc(Cl)cnc5C)CC4)c4ccccc43)cc2c1C [Example 295, 5-chloro-N-((1r,4r)-4-((3-(2-ethyl-3-methyl-2H-pyrazolo[3,4-b]pyridin-5-yl)-2-oxo-2,3-dihydro-1H-benzo[d]imidazol-1-yl)methyl)cyclohexyl)-2-methylnicotinamide]
< 300 | O=C(N[C@H]1CC[C@H](Cn2c(=O)n(-c3ccc4ncccc4c3)c3ncccc32)CC1)c1cc(Cl)cnc1C(F)F [Example 362, 5-chloro-2-(difluoromethyl)-N-((1r,4r)-4-((2-oxo-3-(quinolin-6-yl)-2,3-dihydro-1H-imidazo[4,5-b]pyridin-1-yl)methyl)cyclohexyl)nicotinamide]
< 300 | O=C(N[C@H]1CC[C@H](Cn2c(=O)n(-c3ccc(N4CCC4=O)nc3)c3ccccc32)CC1)c1cc(Cl)cnc1C(F)F [Example 501, 5-chloro-2-(difluoromethyl)-N-((1r,4r)-4-((2-oxo-3-(6-(2-oxoazetidin-1-yl)pyridin-3-yl)-2,3-dihydro-1H-benzo [d]imidazol-1-yl)methyl)cyclo-hexyl)nicotinamide]
< 300 | CNC(=O)c1ccc(-n2c(=O)n(C[C@H]3CC[C@H](NC(=O)c4cc(Cl)cnc4C)CC3)c3cc(C)ccc32)cn1 [Example 225, 5-(3-(((1r,4r)-4-(5-chloro-2-methylnicotinamido)cyclo-hexyl)methyl)-5-methyl-2-oxo-2,3-dihydro-1H-benzo [d]imidazol-1-yl)-N-methylpicolinamide]
< 300 | CNC(=O)c1ccc(-n2c(=O)n(C[C@H]3CC[C@H](NC(=O)c4cc(Cl)cnc4C)CC3)c3cccc(F)c32)cn1 [Example 235, 5-(3-(((1r,4r)-4-(5-chloro-2-methylnicotinamido)cyclo-hexyl)methyl)-7-fluoro-2-oxo-2,3-dihydro-1H-benzo[d]imidazol-1-yl)-N-methylpicolinamide]
< 300 | COc1ccc(C#N)c(-n2c(=O)n(C[C@H]3CC[C@H](NC(=O)c4cc(Cl)cnc4C(F)F)CC3)c3cccnc32)c1 [Example 507, 5-chloro-N-((1r,4r)-4-((3-(2-cyano-5-methoxyphenyl)-2-oxo-2,3-dihydro-1H-imidazo [4,5-b]pyridin-1-yl)methyl)cyclohexyl)-2-(difluoromethyl) nicotinamide]
< 300 | CC(F)(F)CNc1ccc(-n2c(=O)n(C[C@H]3CC[C@H](NC(=O)c4cc(Cl)cnc4C(F)F)CC3)c3ccccc32)cn1 [Example 515, 5-chloro-2-(difluoromethyl)-N-((1r,4r)-4-((3-(6-((2,2-difluoropropyl)amino)pyridin-3-yl)-2-oxo-2,3-dihydro-1H-benzo[d]imidazol-1-yl)methyl)cyclohexyl)nicotinamide]
< 300 | Cc1ncc(Cl)cc1C(=O)N[C@H]1CC[C@H](Cn2c(=O)n(-c3ccc4c(c3)n(C)c(=O)n4C)c3ccccc32)CC1 [Example 169, 5-chloro-N-((1r,4r)-4-((1′,3′-dimethyl-2,2′-dioxo-2′,3′-dihydro-1′H-[1,5′-bibenzo [d]imidazol]-3(2H)-yl)methyl)cyclohexyl)-2-methylnicotinamide]
< 300 | COCCNc1ccc(-n2c(=O)n(C[C@H]3CC[C@H](NC(=O)c4cc(Cl)cnc4C)CC3)c3ccccc32)cn1 [Example 593, 5-chloro-N-((1r,4r)-4-((3-(6-((2-methoxyethyl)amino)pyridin-3-yl)-2-oxo-2,3-dihydro-1H-benzo[d]imidazol-1-yl)methyl)cyclo-hexyl)-2-methylnicotinamide]
< 300 | Cc1ncc(Cl)cc1C(=O)N[C@H]1CC[C@H](Cn2c(=O)n(-c3ccn4cncc4c3)c3ccccc32)CC1 [Example 296, 5-chloro-N-((1r,4r)-4-((3-(imidazo[1,5-a]pyridin-7-yl)-2-oxo-2,3-dihydro-1H-benzo[d]imidazol-1-yl)methyl)cyclohexyl)-2-methylnicotinamide]
< 300 | COc1ccc(F)c(-n2c(=O)n(C[C@H]3CC[C@H](NC(=O)c4cc(Cl)cnc4C(F)F)CC3)c3cccnc32)c1 [Example 725, 5-chloro-2-(difluoromethyl)-N-((1r,4r)-4-((3-(2-fluoro-5-methoxyphenyl)-2-oxo-2,3-dihydro-1H-imidazo[4,5-b]pyridin-1-yl)methyl)cyclo-hexyl)nicotinamide]
< 300 | Cc1n[nH]c2ccc(-n3c(=O)n(C[C@H]4CC[C@H](NC(=O)c5cc(Cl)cnc5C(F)(F)F)CC4)c4ccccc43)cc12 [Example 260, 5-chloro-N-((1r,4r)-4-((3-(3-methyl-1H-indazol-5-yl)-2-oxo-2,3-dihydro-1H-benzo[d]imidazol-1-yl)methyl)cyclohexyl)-2-(trifluoromethyl)nicotinamide]
< 300 | O=C(N[C@H]1CC[C@H](Cn2c(=O)n(-c3cc(F)ccc3Cl)c3ncccc32)CC1)c1cc(Cl)cnc1C(F)F [Example 454, 5-chloro-N-((1r,4r)-4-((3-(2-chloro-5-fluorophenyl)-2-oxo-2,3-dihydro-1H-imidazo[4,5-b]pyridin-1-yl)methyl)cyclo-hexyl)-2-(difluoromethyl) nicotinamide]
< 300 | COCCOc1cncc(-n2c(=O)n(C[C@H]3CC[C@H](NC(=O)c4cc(Cl)cnc4C)CC3)c3ccccc32)c1 [Example 486, 5-chloro-N-((1r,4r)-4-((3-(5-(2-methoxyethoxy)pyridin-3-yl)-2-oxo-2,3-dihydro-1H-benzo[d]imidazol-1-yl)methyl)cyclo-hexyl)-2-methylnicotinamide]
< 300 | Cc1ncc(Cl)cc1C(=O)N[C@H]1CC[C@H](Cn2c(=O)n(Cc3cccc(C#N)c3)c3ccccc32)CC1 [Example 242, 5-chloro-N-((1r,4r)-4-((3-(3-cyanobenzyl)-2-oxo-2,3-dihydro-1H-benzo[d]imidazol-1-yl)methyl)cyclohexyl)-2-methylnicotinamide]
< 300 | C=Cc1cc(-n2c(=O)n(C[C@H]3CC[C@H](NC(=O)c4cc(Cl)cnc4C)CC3)c3ccccc32)ccn1 [Example 82, 5-chloro-2-methyl-N-((1r,4r)-4-((2-oxo-3-(2-vinylpyridin-4-yl)-2,3-dihydro-1H-benzo [d]imidazol-1-yl)methyl)cyclohexyl)nicotinamide]
< 300 | Cc1ncc(Cl)cc1C(=O)N[C@H]1CC[C@H](Cn2c(=O)n(-c3ccc4nccn4c3)c3ccccc32)CC1 [Example 186, 5-chloro-N-((1r,4r)-4-((3-(imidazo[1,2-a]pyridin-6-yl)-2-oxo-2,3-dihydro-1H-benzo [d]imidazol-1-yl)methyl)cyclohexyl)-2-methylnico-tinamide]
< 300 | Cn1cc(-c2cccc(-n3c(=O)n(C[C@H]4CC[C@H](NC(=O)c5cc(Cl)cnc5C(F)F)CC4)c4ccccc43)n2)cn1 [Example 657, 5-chloro-2-(difluoromethyl)-N-((1r,4r)-4-((3-(6-(1-methyl-1H-pyrazol-4-yl)pyridin-2-yl)-2-oxo-2,3-dihydro-1H-benzo[d]imidazol-1-yl)methyl)cyclohexyl)nicotinamide]
< 300 | Cc1ccc(-n2c(=O)n(C[C@H]3CC[C@H](NC(=O)c4cc(Cl)cnc4C)CC3)c3cccc(C)c32)cn1 [Example 57, 5-chloro-2-methyl-N-((1r,4r)-4-((4-rrethyl-3-(6-methylpyridin-3-yl)-2-oxo-2,3-dihydro-1H-benzo[d]imidazol-1-yl)methyl)cyclohexyl)nicotinamide]
< 300 | Cc1ncc(Cl)cc1C(=O)N[C@H]1CC[C@H](Cn2c(=O)n(-c3ccnc(-c4cnco4)c3)c3ccccc32)CC1 [Example 521, 5-chloro-2-methyl-N-((1r,4r)-4-((3-(2-(oxazol-5-yl)pyridin-4-yl)-2-oxo-2,3-dihydro-1H-benzo[d]imidazol-1-yl)methyl)cyclohexyl)nicotinamide]
< 300 | Cc1ncc(Cl)cc1C(=O)N[C@H]1CC[C@H](Cn2c(=O)n(-c3ccc(F)cc3F)c3ccccc32)CC1 [Example 46, 5-chloro-N-((1r,4r)-4-((3-(2,4-difluorophenyl)-2-oxo-2,3-dihydro-1H-benzo[d]imidazol-1-yl)methyl)cyclohexyl)-2-methylnicotinamide]
